Structures are written as SMILES.

The target of the assay is human TRPA1 (Homo sapiens (Human), UniProt O75762). The assay can be described thus: hTRPA1 CHO Ca2+ AUC EVO (IC50); FLIPR Tetra block of cinnamaldehyde induced calcium influx. The assay is classed as cell-based. The note with it: CHO cells expressing TRPA1, 75 uM cinnamaldehyde (~EC80) as agonist. As for the experimental part: IC50 ([…]) of compounds on the human and rat TRPA1 channels were determined using a FLIPR Tetra instrument. CHO cells expressing TRPA1 were plated into 384-well plates, incubated overnight at 37° C., and loaded with BD calcium indicator dye for 1 hr at 37° C. followed by 15 minutes. at room temperature. The assay buffer was Hank's Balanced Salt Solution (HBSS) containing 20 mM HEPES (pH readjusted to 7.4) along with 0.02% BSA.
Chain of human TRPA1 (O75762 whole entry): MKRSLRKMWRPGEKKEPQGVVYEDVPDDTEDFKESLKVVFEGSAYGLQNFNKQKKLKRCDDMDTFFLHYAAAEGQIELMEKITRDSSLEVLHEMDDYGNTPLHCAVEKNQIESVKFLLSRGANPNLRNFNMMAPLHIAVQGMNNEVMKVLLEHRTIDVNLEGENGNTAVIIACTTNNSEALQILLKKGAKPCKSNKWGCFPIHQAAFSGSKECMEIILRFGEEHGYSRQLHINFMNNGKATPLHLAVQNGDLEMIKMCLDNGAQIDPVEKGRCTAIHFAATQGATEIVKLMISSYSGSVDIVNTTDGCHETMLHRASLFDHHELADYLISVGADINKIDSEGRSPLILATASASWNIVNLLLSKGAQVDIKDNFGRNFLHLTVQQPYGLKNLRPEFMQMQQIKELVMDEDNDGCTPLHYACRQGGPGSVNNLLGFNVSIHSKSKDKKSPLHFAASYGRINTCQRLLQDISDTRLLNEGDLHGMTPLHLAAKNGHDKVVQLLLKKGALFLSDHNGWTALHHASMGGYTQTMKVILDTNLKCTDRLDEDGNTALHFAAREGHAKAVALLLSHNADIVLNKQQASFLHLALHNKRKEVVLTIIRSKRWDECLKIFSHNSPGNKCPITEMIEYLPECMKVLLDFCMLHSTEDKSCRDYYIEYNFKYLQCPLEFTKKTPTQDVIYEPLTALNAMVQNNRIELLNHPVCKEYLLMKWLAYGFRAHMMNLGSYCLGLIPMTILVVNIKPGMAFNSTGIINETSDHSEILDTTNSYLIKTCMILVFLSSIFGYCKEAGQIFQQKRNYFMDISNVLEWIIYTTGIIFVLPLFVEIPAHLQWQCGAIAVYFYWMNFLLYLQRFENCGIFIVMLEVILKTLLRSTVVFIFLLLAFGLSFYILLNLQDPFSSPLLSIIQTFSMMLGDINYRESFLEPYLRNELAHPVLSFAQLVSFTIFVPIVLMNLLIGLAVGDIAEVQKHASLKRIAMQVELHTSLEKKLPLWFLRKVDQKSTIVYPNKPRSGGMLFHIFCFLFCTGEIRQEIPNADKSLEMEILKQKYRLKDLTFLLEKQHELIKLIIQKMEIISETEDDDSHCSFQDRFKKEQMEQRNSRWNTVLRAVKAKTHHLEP
Following dye load and plate cool down, compounds were added to the cells using FLIPR Tetra. Plates were then incubated with compounds for 20 minutes at room temperature prior to adding agonist. Following this incubation, ˜EC80 concentration of cinnamaldehyde (75 uM for human TRPA1 and 45 uM for rat TRPA1) was added to active the channels and block of cinnamaldehyde induced calcium influx was measured.
IC50 values were fit with a standard Hill function, keeping the Hill coefficient (n) fixed to 1.5. Fixing the Hill coefficient will generally reduce variability of the IC50 determination. The IC50 values were individually examined to make sure the MIN and MAX points were set correctly prior to validation of the results.

By IC50 is commonly meant the concentration at which inhibition is half-maximal. Regarding `O=C(NCc1cc(-c2cnc(C(F)(F)F)nc2)c(F)cn1)[C@@H]1C2CC(C2)N1S(=O)(=O)c1cc2cc(F)ccc2o1`, the 50% inhibitory concentration (IC50) (Table 1) is 1.08 nM.

On to `O=C(NCc1cc(-c2cnc(C(F)(F)F)nc2)ccc1F)[C@@H]1C2CC(C2)N1S(=O)(=O)c1ccc(F)cc1` [(2S)-3-(4-fluorophenyl)sulfonyl-N-[[2-fluoro-5-[2-(trifluoromethyl)pyrimidin-5-yl]phenyl]methyl]-3-azabicyclo[2.1.1]hexane-2-carboxamide], for which the IC50 (Table 1) is 9.89 nM. `O=C(NCc1cc(F)cc(-c2cnc(C(F)(F)F)nc2)c1)[C@@H]1C2CC(C2)N1S(=O)(=O)c1ccc(F)cc1` [(2S)-3-(4-fluorophenyl)sulfonyl-N-[[3-fluoro-5-[2-(trifluoromethyl)pyrimidin-5-yl]phenyl]methyl]-3-azabicyclo[2.1.1]hexane-2-carboxamide]: the IC50 (Table 1) stood at 8.97 nM. On the same count and under the same terms, with `O=C(NCc1cc(-c2cnc(C(F)(F)F)nc2)ncc1OC(F)(F)F)[C@@H]1C2CC(C2)N1S(=O)(=O)c1ccc(F)cc1` [(2S)-3-(4-fluorophenyl)sulfonyl-N-[[5-(trifluoromethoxy)-2-[2-(trifluoromethyl)pyrimidin-5-yl]-4-pyridyl]methyl]-3-azabicyclo[2.1.1]hexane-2-carboxamide] the figure was 2.77 nM; with `O=C(NCc1cc(-c2cnc(C(F)(F)F)nc2)ncc1C(F)(F)F)[C@@H]1C2CC(C2)N1S(=O)(=O)c1ccc(F)cc1` [(2S)-3-(4-fluorophenyl)sulfonyl-N-[[5-(trifluoromethyl)-2-[2-(trifluoromethyl)pyrimidin-5-yl]-4-pyridyl]methyl]-3-azabicyclo[2.1.1]hexane-2-carboxamide], 2.61 nM.

Take `O=C(NCc1cc(-c2cnc(C(F)(F)F)nc2)ncc1C(F)(F)F)[C@@H]1C2CC(C2)N1S(=O)(=O)c1cc2cc(F)ccc2o1` [(2S)-3-(5-fluorobenzofuran-2-yl)sulfonyl-N-[[5-(trifluoromethyl)-2-[2-(trifluoromethyl)pyrimidin-5-yl]-4-pyridyl]methyl]-3-azabicyclo[2.1.1]hexane-2-carboxamide]: where the note is “Table 1”, the IC50 was determined as 1.85 nM.

`O=C(NCc1cc(Cl)nc(-c2cnc(C(F)(F)F)nc2)c1)[C@@H]1C2CC(C2)N1S(=O)(=O)c1ccc(F)cc1` [(2S)-N-[[2-chloro-6-[2-(trifluoromethyl)pyrimidin-5-yl]-4-pyridyl]methyl]-3-(4-fluorophenyl)sulfonyl-3-azabicyclo[2.1.1]hexane-2-carboxamide]: under “Table 1”, the IC50 is 4.64 nM. Still for that read-out and setting: in the case of `O=C(NCc1cc(-c2cnc(C(F)(F)F)nc2)nc(C2CC2)n1)[C@@H]1C2CC(C2)N1S(=O)(=O)c1ccc(F)cc1` [(2S)-N-[[2-cyclopropyl-6-[2-(trifluoromethyl)pyrimidin-5-yl]pyrimidin-4-yl]methyl]-3-(4-fluorophenyl)sulfonyl-3-azabicyclo[2.1.1]hexane-2-carboxamide] it was 2.15 nM; in that of `O=C(NCc1cc(-c2cnc(C(F)(F)F)nc2)ncc1C(F)F)[C@@H]1C2CC(C2)N1S(=O)(=O)c1ccc(F)c(F)c1` [(2S)-N-[[5-(difluoromethyl)-2-[2-(trifluoromethyl)pyrimidin-5-yl]-4-pyridyl]methyl]-3-(3,4-difluorophenyl)sulfonyl-3-azabicyclo[2.1.1]hexane-2-carboxamide], 9.01 nM; in that of `O=C(NCc1cc(-c2cnc(C(F)(F)F)nc2)ncc1C(F)F)[C@@H]1C2CC(C2)N1S(=O)(=O)c1ccc(F)cc1` [(2S)-N-[[5-(difluoromethyl)-2-[2-(trifluoromethyl)pyrimidin-5-yl]-4-pyridyl]methyl]-3-(4-fluorophenyl)sulfonyl-3-azabicyclo[2.1.1]hexane-2-carboxamide], 9.92 nM. Regarding `O=C(NCc1cc(-c2cnc(C(F)(F)F)nc2)ncc1Br)[C@@H]1C2CC(C2)N1S(=O)(=O)c1ccc(F)cc1` [(2S)-N-[[5-bromo-2-[2-(trifluoromethyl)pyrimidin-5-yl]-4-pyridyl]methyl]-3-(4-fluorophenyl)sulfonyl-3-azabicyclo[2.1.1]hexane-2-carboxamide], the IC50 (Table 1) was 3.82 nM. Consider `O=C(NCc1cc(-c2cnc(C(F)(F)F)nc2)ncc1Cl)[C@@H]1C2CC(C2)N1S(=O)(=O)c1ccc(F)c(F)c1` [(2S)-N-[[5-chloro-2-[2-(trifluoromethyl)pyrimidin-5-yl]-4-pyridyl]methyl]-3-(3,4-difluorophenyl)sulfonyl-3-azabicyclo[2.1.1]hexane-2-carboxamide], for which the 50% inhibitory concentration (IC50) (Table 1) came to 1.55 nM. `O=C(NCc1cc(-c2cnc(C(F)(F)F)nc2)cc(C2CC2)n1)[C@@H]1C2CC(C2)N1S(=O)(=O)c1ccc(F)cc1` [(2S)-N-[[6-cyclopropyl-4-[2-(trifluoromethyl)pyrimidin-5-yl]-2-pyridyl]methyl]-3-(4-fluorophenyl)sulfonyl-3-azabicyclo[2.1.1]hexane-2-carboxamide]: under “Table 1”, the IC50 was 7.24 nM. In the case of `O=C(NCc1cc(-c2cnc(C(F)(F)F)nc2)ncn1)[C@@H]1C2CC(C2)N1S(=O)(=O)c1ccc(F)cc1` [compound 1, (2S)-3-(4-fluorophenyl)sulfonyl-N-[[6-[2-(trifluoromethyl)pyrimidin-5-yl]pyrimidin-4-yl]methyl]-3-azabicyclo[2.1.1]hexane-2-carboxamide], the IC50 (Table 3) came to 42.9 nM. Same read-out and setting: in the case of `O=C(NCc1cc(-c2cnc(C(F)(F)F)nc2)ncc1F)[C@@H]1C2CC(C2)N1S(=O)(=O)c1ccc(F)cc1` [compound 2, (2S)-3-(4-fluorophenyl)sulfonyl-N-[[5-fluoro-2-[2-(trifluoromethyl)pyrimidin-5-yl]-4-pyridyl]methyl]-3-azabicyclo[2.1.1]hexane-2-carboxamide] it was 11.3 nM; in that of `O=C(NCc1cc(-c2ccc(C(F)(F)F)nc2)ncn1)[C@@H]1C2CC(C2)N1S(=O)(=O)c1ccc(F)cc1` [compound 3, (2S)-3-(4-fluorophenyl)sulfonyl-N-[[6-[6-(trifluoromethyl)-3-pyridyl]pyrimidin-4-yl]methyl]-3-azabicyclo[2.1.1]hexane-2-carboxamide], 24.8 nM; in that of `O=C(NCc1ccnc(-c2cnc(C(F)(F)F)nc2)c1)[C@@H]1C2CC(C2)N1S(=O)(=O)c1ccc(F)cc1` [compound 4, (2S)-3-(4-fluorophenyl)sulfonyl-N-[[2-[2-(trifluoromethyl)pyrimidin-5-yl]-4-pyridyl]methyl]-3-azabicyclo[2.1.1]hexane-2-carboxamide], 36.4 nM. The same measure, in the same setting: in the case of `O=C(NCc1cc(Cl)nc(-c2cnc(C(F)(F)F)nc2)c1)[C@@H]1C2CC(C2)N1S(=O)(=O)c1ccc(F)cc1` [compound 5, (2S)-N-[[2-chloro-6-[2-(trifluoromethyl)pyrimidin-5-yl]-4-pyridyl]methyl]-3-(4-fluorophenyl)sulfonyl-3-azabicyclo[2.1.1]hexane-2-carboxamide] it was 4.64 nM; in that of `O=C(NCc1cc(-c2cnc(C(F)(F)F)nc2)c(F)cn1)[C@@H]1C2CC(C2)N1S(=O)(=O)c1ccc(F)cc1` [compound 6, (2S)-3-(4-fluorophenyl)sulfonyl-N-[[5-fluoro-4-[2-(trifluoromethyl)pyrimidin-5-yl]-2-pyridyl]methyl]-3-azabicyclo[2.1.1]hexane-2-carboxamide], 16.8 nM; in that of `O=C(NCc1cc(-c2cnc(C(F)(F)F)nc2)c(Cl)cn1)[C@@H]1C2CC(C2)N1S(=O)(=O)c1ccc(F)cc1` [compound 7, (2S)-N-[[5-chloro-4-[2-(trifluoromethyl)pyrimidin-5-yl]-2-pyridyl]methyl]-3-(4-fluorophenyl)sulfonyl-3-azabicyclo[2.1.1]hexane-2-carboxamide], 20.8 nM.

Regarding `N#Cc1cnc(-c2cnc(C(F)(F)F)nc2)cc1CNC(=O)[C@@H]1C2CC(C2)N1S(=O)(=O)c1ccc(F)cc1` [compound 8, (2S)-N-[[5-cyano-2-[2-(trifluoromethyl)pyrimidin-5-yl]-4-pyridyl]methyl]-3-(4-fluorophenyl)sulfonyl-3-azabicyclo[2.1.1]hexane-2-carboxamide], under “Table 3”, the IC50 stood at 16 nM. Still for that read-out and setting: in the case of `N#Cc1ccc(-c2cnc(C(F)(F)F)nc2)cc1CNC(=O)[C@@H]1C2CC(C2)N1S(=O)(=O)c1ccc(F)cc1` [compound 9, (2S)-N-[[2-cyano-5-[2-(trifluoromethyl)pyrimidin-5-yl]phenyl]methyl]-3-(4-fluorophenyl)sulfonyl-3-azabicyclo[2.1.1]hexane-2-carboxamide] it was 17.1 nM; in that of `O=C(NCc1cc(-c2cnc(C(F)(F)F)nc2)nc(C2CC2)n1)[C@@H]1C2CC(C2)N1S(=O)(=O)c1ccc(F)cc1` [compound 10, (2S)-N-[[2-cyclopropyl-6-[2-(trifluoromethyl)pyrimidin-5-yl]pyrimidin-4-yl]methyl]-3-(4-fluorophenyl)sulfonyl-3-azabicyclo[2.1.1]hexane-2-carboxamide], 2.15 nM; in that of `CC12CC(C1)[C@@H](C(=O)NCc1cc(-c3cnc(C(F)(F)F)nc3)c(F)cn1)N2S(=O)(=O)c1ccc(F)cc1` [compound 12, (2S)-3-(4-fluorophenyl)sulfonyl-N-[[5-fluoro-4-[2-(trifluoromethyl)pyrimidin-5-yl]-2-pyridyl]methyl]-4-methyl-3-azabicyclo[2.1.1]hexane-2-carboxamide], 90.2 nM. On the same count and under the same terms, with `O=C(NCc1cc(-c2cnc(C(F)(F)F)nc2)ncc1Cl)[C@@H]1C2CC(C2)N1S(=O)(=O)c1ccc(F)c(F)c1` [compound 13, (2S)-N-[[5-chloro-2-[2-(trifluoromethyl)pyrimidin-5-yl]-4-pyridyl]methyl]-3-(3,4-difluorophenyl)sulfonyl-3-azabicyclo[2.1.1]hexane-2-carboxamide] the figure was 1.55 nM.

The values above are taken from patent US10597383B2, “Bicyclic proline compounds” (Genentech, Inc., priority 2016, dated 2020).
